These results are taken from US20260097047A1, “Small molecule inhibitors of the ribosome biogenesis factor NVL2” (Board of Regents, The University of Texas System, priority 2023, published 2026).

SMILES strings stand for the structures.

For assay [1], the system named is 60S, 80S and 40S ribosomal subunits. Nature of the assay: Polysome profiling. Type of assay: cell-based, human. The source says:
NVL2 in yeast is essential for 60S ribosomal maturation, and therefore, we hypothesized that MM017 might decrease 60S ribosome synthesis. To test this hypothesis, we subjected either parental or NVL mutant cells treated with MM017 for different time points to polysome profiling. Polysome profiling uses a sucrose gradient to fractionate the complete ribosome (80S) from its components, the large (60S) and small (40S) subunit. […] Since the 80S is a complex of the 40S and 60S ribosomes, fewer 60S ribosomes are expected to result in increased free 40S subunits. All of these changes are the result of binding NVL2 since they were not present in the NVL2^R403W mutant cells. Taken together, these observations indicate that MM017 inhibits NVL2 leading to reduced 60S ribosome.
We next assessed the impact of disrupting NVL on the distribution of ribosomal species using polysome profiling. Addition of Ph-IAA to induce NVL degradation in NVL^AID/AID cells led to a time-dependent reduction in free 60S and 80S levels (based on absorbance at 260 nm) and a concomitant increase in 40S levels. […] The polysome profiles following NVL disruption in HCT116 cells appear similar to those reported in yeast with RIX7 mutations (37) or in human cells overexpressing catalytic mutants of NVL (38).

A further assay relates to HCT116 cells. Nature of the assay: Genome-wide CRISPR/Cas9 knockout screen in HCT116 cells. Type of assay: cell-based, human. As to conditions: 1 μM pulsed intermittently over 21 days. The source says: To better understand how inhibition of NVL by MM017 leads to cell death, we performed a genome wide pooled CRISPR/Cas9 knockout screen in HCT116 cells using a library of guide RNAs targeting 19,114 genes. Cells were pulsed intermittently with vehicle or MM017 over 21 days, at which point MM017 treated cells had undergone 9.79 fewer population doublings. Massively parallel sequencing of PCR products amplified from genomic DNA was used to determine relative levels of sgRNA sequences to infer the relative impact of each gene on compound sensitivity. […]
HCT116 cells stably expressing Cas9 were generated by infecting cells with lentiCas9-Blast (Addgene #52962) and selection with 10 μg/mL blasticidin. […] Viable cells were counted at each passage and collected after 21 days. Genomic DNA was extracted using Blood & Cell Culture DNA Maxi kit (QIAGEN #13362), and concentrations were determined using Quant-iT PicoGreen dsDNA assay kits (Invitrogen #P7589). sgRNAs were PCR-amplified using 28 cycles from approximately 650 μg genomic DNA (10 μg DNA/100 μL reaction) using Ex Taq DNA Polymerase (TaKaRa #RR001B), 8 staggered P5 primers, and 1 unique P7 index primer per sample as described in the “Protocol PCR of sgRNAs from gDNA for Illumina sequencing” published by the Broad Institute (51). […] The mapping reads were counted for each sgRNA using SAMtools (v1.9) with the options “-F 2308-q 1”. […]

In assay [2] the test system is p53 and p21 in HCT116 NVL^WT tumors. The assay is described as follows: Pharmacodynamic study: p53 and p21 in HCT116 NVL^WT xenograft tumors. Type of assay: in vivo, mouse. To be noted: 35 mg/kg IP. As to the method: (§1) Plasma exposure was dose-dependent up to 35 mg/kg (IP injection) reaching a maximum concentration at 17.86 μM. These levels exceed the anti-proliferative IC99 of MM927 in cells expressing either human or mouse NVL. In a subsequent pharmacodynamic (PD) study, we asked if we could assess on-target NVL inhibition via a subsequent p53 and/or p21 induction in tumor xenografts in mice treated with MM927. We implanted HCT116 NVL^WT and NVL^R403W cells subcutaneously on either flank of the mice and evaluated the levels of p53 and p21 in either tumor at various time points after IP administration of 35 mg/kg of MM927.
(§2) Pharmacodynamic study: Five million parental HCT116 cells or HCT116 NVL^R403W in a volume of 0.1 mL were implanted using a subcutaneous injection in the left and right side of four-to-eight-week-old male and female NSG mice, respectively. Tumor volumes were measured every 2 to 4 days with calipers. When the tumor diameter reached 0.5 cm in diameter, mice were dosed with 35 mg/kg MM927 or vehicle formulated as 10% DMSO/10% Kolliphor EL/10% Solutal/70% D5W and administered via the intraperitoneal route. At each time point (0, 3, 6, 12, 24 hours post dose), tumors were harvested and flash frozen for Western blot analysis for p53 and p21 as described.

The test system of assay [3] is p53 and p21 in HCT116 NVL^R403W tumors. The assay is described as follows: Pharmacodynamic study: p53 and p21 in HCT116 NVL^R403W xenograft tumors. Type of assay: in vivo, mouse. To be noted: 35 mg/kg IP, opposing flank of same mice. As to the method: as §1, §2

Consider `COCCN1C(=O)c2ccccc2Sc2cc(NC(=O)c3ccoc3)ccc21` [MM017], for which the “polysome profile, NVL^P307T cells” value in assay [1] (NVL^P307T) was “no changes in polysome profiles”. The “polysome profile, parental cells” value in assay [1] (parental HCT116) is “time-dependent decrease in the 60S and 80S ribosomal subunits”. For the same molecule, the “fewer population doublings than vehicle” value in the assay on HCT116 cells came out at 9.79.
In the case of `CC#CCN1C(=O)c2ccc(F)cc2Sc2cc(NC(=O)c3ccc4oc(=O)n(C)c4c3)ccc21` [MM927, N-(10-(But-2-yn-1-yl)-3-fluoro-11-oxo-10,11-dihydrodibenzo[b,f][1,4]thiazepin-7-yl)-3-methyl-2-oxo-2,3-dihydrobenzo[d]oxazole-5-carboxamide], in assay [2], the “p53 and p21 time course in NVL^WT tumor” value is “remained elevated at 12 hours and decreased to basal levels by 24 hours”; the “p53 protein levels in NVL^WT tumor” value is listed as “increased 3 hours after injection”. The “p53 and p21 in NVL^R403W tumor” value in assay [3] was “no change in p53 and p21”.
